Experimental data published in US9737525B2, “Small molecule activators of NRF2 pathway” (The General Hospital Corporation, priority 2013, dated 2017).

Experiments:
N9 microglial cells = assay: ROS/RNI assays in stimulated N9 microglial cells; type: cell-based; details: LPS- and TNFα-activated microglial cells, 20 hr
Description: N9 microglial cells were cultured in RPMI medium containing Glutamax (Invitrogen) and supplemented with 10% FBS (Endotoxin levels lower than 10 EU/ml). Cells were plated in 96 well plates (5×10^4 per well) and cultured overnight before stimulation with LPS (100 ng/ml) and TNFα (10 ng/ml) for 20 hr in medium supplemented with DMSO or with the tested compounds. ROS were detected by flow cytometry after microglia incubation with […] of 5-(and-6)-chloromethyl-2′,7′-dichlorodihydrofluorescein diacetate, acetyl ester (CM-H2DCFDA) (Invitrogen) for 20 min. The production of NO by iNOS was measured indirectly by assaying nitrites in the culture supernatant using the Griess reaction [Liu, 2013]. Briefly, […] of supernatants were incubated with equal amount of Griess reagent (1% sulphanilamide, 0.1% naphthylethylenediamine in 2% phosphoric acid solution) and the absorbance read at 550 nm after 20 min of incubation at room temperature.

[1] = test system: LUHMES cells overexpressing aSyn; assay: Viability assay (adenylate kinase release) in differentiated LUHMES cells overexpressing aSyn; type: cell-based; details: 0.4 μM and 1 μM, 96 hr
Description: LUHMES cells were maintained as proliferating cultures and differentiated into post-mitotic-like neurons on Nunclon plates and flasks, pre-coated with 50 μg/mL poly-L-ornithine (Sigma) and 1 μg/mL fibronectin (Sigma). Specifically, 8×10^6 proliferating LUHMES cells were seeded into a T175 flask containing proliferation medium, consisting of advanced DEMEM/F12 (Invitrogen), 2 mM L-glutamine (Sigma-Aldrich), 1×N2 supplement (Invitrogen) and 40 ng/mL recombinant human bFGF (R&D Systems). After 24 hr, proliferation medium was replaced with differentiation medium, composed of advanced DMEM/F12 (Invitrogen), 2 mM L-glutamine (Sigma-Aldrich), 1×N2 supplement (Invitrogen), 1 mM dibutyryl 3′, 5′-cyclic adenosine monophosphate (Sigma-Aldrich), 2.25 μM tetracycline and 2 ng/mL recombinant human GDNF (R&D Systems). 48 hr later, cells were trypsinized and seeded into 24-well plates, containing 1 mL of differentiation medium and 250,000 cells/well.
For lenti-virus based expression the following transfer plasmids have been constructed. […] The measurement of transgene expression has been determined by qRT PCR using SYBR GREEN, after infection of 293-Hek-cells, and specific primers to the woodchuck hepatitis virus posttranscriptional regulatory element (WPRE) as described previously (PMID: 12718761). […]

O=[N+]([O-])c1ccc(Sc2nnc(COc3ccccc3)n2-c2ccccc2)c2ncccc12 [MIND4, 5-nitro-8-{[5-(phenoxymethyl)-4-phenyl-4H-1,2,4-triazol-3-yl]thio}quinoline]
Production of RNI (nitrites in supernatants) (N9 microglial cells): reduced the production of RNI | ROS levels (N9 microglial cells): reduced ROS levels | Protection against αSyn toxicity [1]: only mild protection

O=[N+]([O-])c1ccc(Sc2nnc(COc3ccccc3)n2-c2ccccc2)nc1 [MIND4-17]
Production of RNI (nitrites in supernatants) (N9 microglial cells): reduced the production of RNI | ROS levels (N9 microglial cells): reduced ROS levels | Protection against αSyn toxicity [1]: significant protective effects
